In patent US9446029B2, “Use of NK-1 receptor antagonists in management of visceral pain” (priority 2010, dated 2016):
Read-outs that look alike come from different tables or passages of the source.

Experiments:
dogs [1] = settings: cited from earlier work
dogs [2] = test: Sevoflurane MAC reduction by I.V. maropitant during ovarian ligament stimulation in dogs (Example 1); format: in vivo, dog; settings: for MAC Reduction (%, mean ± SD): sevoflurane, ovarian ligament stimulation
Procedure: The NK1 receptor antagonist maropitant, available as […]® from Pfizer, is an antiemetic approved for use in dogs. The ability of maropitant to impact the sevoflurane minimum alveolar concentration (MAC) level needed for surgery was tested in canine subjects. The eight animals were 1 year old, intact female, Walker hound mix. A first group was administered 1 mg/kg maropitant, I.V. over 5 minutes then 30 μg/kg/h. A second group was administered 5 mg/kg maropitant, I.V. over 5 minutes then 150 μg/kg/h. General anesthesia was induced using sevoflurane as described below and otherwise according to standard veterinary procedure. Animals were maintained in dorsal recumbency. MAC reduction effect was tested by stimulation of the ovarian ligament. Ovariectomy was performed on each animal at the end of the study. In each animal, sterile laparoscopy was performed to access the right ovary. Following thirty minutes of sevoflurane at steady state, end-tidal sevoflurane concentration was measured with a calibrated agent analyzer (Biochem). […] Esophageal temperature was 37.5-39° C. Ovarian ligament stimulation was performed using 6.61 Newton's of force with a calibrated grass force displacement transducer. FIG. 1 is a bar graph comparing the MAC reduction using I.V. maropitant during […] anesthesia. The observed MAC reduction is reported at sea level (mean±SD), and compared to published results for other MAC reduction agents in Table 1.

cats = test: Sevoflurane MAC during ovarian ligament stimulation in cats (Example 3); format: in vivo, cat; settings: for sevoflurane anesthetic requirement MAC (mean±SD): ovarian ligament stimulation, control MAC 2.96±0.32%
Text: Ten (10) female cats were anesthetized with sevoflurane. Following stabilization, the right ovarian ligament was accessed using a laparoscopic approach to determine the anesthetic minimum alveolar concentration (MAC). The ovarian ligament was stimulated using 500 grams of traction force. The MAC is reported as mean±SD, adjusted for calibration values and to sea-level. The anesthetic requirement MAC during stimulation of the ovary was 2.96±0.32%.

dogs [3] = test: Clinical trial of analgesia and comfort in dogs during and after spay surgery (laparotomy ovariohysterectomy), isoflurane anesthesia (Example 2); parameters: dogs showing overt signs of nausea after surgery: dose or concentration left out as unconfirmed; settings: for Post-Operative Carprofen Rescue Analgesia (4 mg/kg, IV): dogs requiring a rescue dose: recovery period; for pain assessment, Visual Analogue Pain Scale (0-10), compared to control group: three hours following recovery from anesthesia, FIG. 6
[4] = maropitant 1 mg/kg SQ or morphine 0.5 mg/kg SQ before anesthesia

## Oc1ccc2c(c1)[C@@]13CCCC[C@@]1(O)[C@@H](C2)N(CC1CCC1)CC3 [Butorphanol]
Dogs [1]; dog, in vivo
  MAC Reduction (%, mean ± SD): 8%

## COc1ccc(C(C)(C)C)cc1CN[C@H]1C2CCN(CC2)[C@@H]1C(c1ccccc1)c1ccccc1 [Maropitant, (7R,8S)—N-[(5-tert-Butyl-2-methoxyphenyl)methyl]-7-[di(phenyl)methyl]-1-azabicyclo[2.2.2]octan-8-amine]
Dogs [2]; maropitant 1 mg/kg I.V. over 5 minutes then 30 μg/kg/h
  MAC Reduction (%, mean ± SD): 24%
Dogs [2]; maropitant 5 mg/kg I.V. over 5 minutes then 150 μg/kg/h
  MAC Reduction (%, mean ± SD): 30%
Dogs [2]; summary of Example 1 (1 and 5 mg/kg)
  increase of the pain threshold during anesthesia: 24-30%
cats; higher maropitant dose IV
  decrease of anesthetic requirement MAC: 17%
  sevoflurane anesthetic requirement MAC (mean±SD): 2.45±0.43%
cats; maropitant 1 mg/kg IV, 500 grams traction
  sevoflurane anesthetic requirement MAC (mean±SD): 2.50±0.33%
cats; maropitant 1 mg/kg IV, p<0.01
  decrease of anesthetic requirement MAC: 15%
Dogs [3]; [4]
  average heart rate throughout surgery: 103±20 beats per minute
  average respiratory rate throughout surgery: 21±12 breaths per minute
  dogs that started eating within 3 hours following surgery: 65%
  subjects responding with panting during surgical painful stimulation: 35%
  Post-Operative Carprofen Rescue Analgesia (4 mg/kg, IV): dogs requiring a rescue dose: 18%
Dogs [3]; maropitant 1 mg/kg SQ or morphine 0.5 mg/kg SQ before anesthesia, FIG. 2
  isoflurane anesthesia required during ovary ligation and resection (vaporizer setting): 1.41±0.25%
Dogs [3]; maropitant 1 mg/kg SQ or morphine 0.5 mg/kg SQ before anesthesia, end of surgery, FIG. 4
  isoflurane anesthesia required during skin closure: 1.26±0.19%
Dogs [3]; maropitant 1 mg/kg SQ or morphine 0.5 mg/kg SQ before anesthesia, listed as maropitant
  Post-Operative Carprofen Rescue Analgesia (4 mg/kg, IV): dogs requiring a rescue dose: 18%
Dogs [3]
  pain assessment, Visual Analogue Pain Scale (0-10), compared to control group: showed fewer overt signs of pain and discomfort

## Cc1cccc([C@H](C)c2cnc[nH]2)c1C [Dexmedetomidine]
Dogs [1]; dexmedetomidine 0.5 μg/kg, 0.5 μg/kg/h, isoflurane, Pascoe et al., 2006
  MAC Reduction (%, mean ± SD): 18%
Dogs [1]; dexmedetomidine 3 μg/kg, 3 μg/kg/h, isoflurane, Pascoe et al., 2006
  MAC Reduction (%, mean ± SD): 59%

## CC(C(=O)O)c1ccc2c(c1)[nH]c1ccc(Cl)cc12 (centres unmarked) [Carprofen]
Dogs [1]; carprofen 4 mg/kg, sevoflurane, Yamashita et al., 2008
  MAC Reduction (%, mean ± SD): 12%

## CC(=O)c1ccc2c(c1)N(CCCN(C)C)c1ccccc1S2 [Acepromazine]
Dogs [1]; acepromazine 0.04 mg/kg, halothane, Heard et al., 1986
  MAC Reduction (%, mean ± SD): 40%

## CN1CC[C@]23c4c5ccc(O)c4O[C@H]2[C@@H](O)C=C[C@H]3[C@H]1C5 [Morphine, morphine]
Dogs [1]; dog, in vivo
  MAC Reduction (%, mean ± SD): 35, 39%
Dogs [3]; before anesthesia
  dogs showing overt signs of nausea after surgery: 31%
Dogs [3]; [4]
  average heart rate throughout surgery: 115±23 beats per minute
  average respiratory rate throughout surgery: 27±20 breaths per minute
  dogs that started eating within 3 hours following surgery: 26%
  dogs whose esophageal pH decreased below 5 during surgery (gastric regurgitation): 29%
  subjects responding with panting during surgical painful stimulation: 38%
  Post-Operative Carprofen Rescue Analgesia (4 mg/kg, IV): dogs requiring a rescue dose: 30%
Dogs [3]; maropitant 1 mg/kg SQ or morphine 0.5 mg/kg SQ before anesthesia, listed as morphine
  Post-Operative Carprofen Rescue Analgesia (4 mg/kg, IV): dogs requiring a rescue dose: 30%
Dogs [3]
  pain assessment, Visual Analogue Pain Scale (0-10), compared to control group: only through the initial two hours of assessment

## CNC1(c2ccccc2Cl)CCCCC1=O (centres unmarked) [Ketamine]
Dogs [1]; dog, in vivo
  MAC Reduction (%, mean ± SD): 47%

## Cc1cnc(NC(=O)C2=C(O)c3ccccc3S(=O)(=O)N2C)s1 [Meloxciam]
Dogs [1]; meloxicam 0.2 mg/kg, sevoflurane, Yamashita et al., 2008
  MAC Reduction (%, mean ± SD): 23%

## CCN(CC)CC(=O)Nc1c(C)cccc1C [Lidocaine]
Dogs [1]; lidocaine 2 mg/kg, 50 μg/kg/min, isoflurane, Valverde et al., 2004
  MAC Reduction (%, mean ± SD): 19%
Dogs [1]; lidocaine 2 mg/kg, 200 μg/kg/min, isoflurane, Valverde et al., 2004
  MAC Reduction (%, mean ± SD): 43%
